According to patent US12351580B2, “NLRP3 modulators” (Innate Tumor Immunity, Inc., priority 2017, dated 2025):
Counter-ions that a name gives are not always drawn.

Each molecule was assayed against T1, TLR8 (Homo sapiens, UniProt Q9NR97) (assay: In vitro human TLR8 binding reporter assay (HEK-Blue, NF-kB/AP1-inducible SEAP)). Settings: activity range symbols.
T1 construct: host or cells: HEK-Blue cells (human HEK) co-expressing TLR8 and an NF-kB/AP1-inducible SEAP reporter
T1 sequence (Q9NR97 27-1041): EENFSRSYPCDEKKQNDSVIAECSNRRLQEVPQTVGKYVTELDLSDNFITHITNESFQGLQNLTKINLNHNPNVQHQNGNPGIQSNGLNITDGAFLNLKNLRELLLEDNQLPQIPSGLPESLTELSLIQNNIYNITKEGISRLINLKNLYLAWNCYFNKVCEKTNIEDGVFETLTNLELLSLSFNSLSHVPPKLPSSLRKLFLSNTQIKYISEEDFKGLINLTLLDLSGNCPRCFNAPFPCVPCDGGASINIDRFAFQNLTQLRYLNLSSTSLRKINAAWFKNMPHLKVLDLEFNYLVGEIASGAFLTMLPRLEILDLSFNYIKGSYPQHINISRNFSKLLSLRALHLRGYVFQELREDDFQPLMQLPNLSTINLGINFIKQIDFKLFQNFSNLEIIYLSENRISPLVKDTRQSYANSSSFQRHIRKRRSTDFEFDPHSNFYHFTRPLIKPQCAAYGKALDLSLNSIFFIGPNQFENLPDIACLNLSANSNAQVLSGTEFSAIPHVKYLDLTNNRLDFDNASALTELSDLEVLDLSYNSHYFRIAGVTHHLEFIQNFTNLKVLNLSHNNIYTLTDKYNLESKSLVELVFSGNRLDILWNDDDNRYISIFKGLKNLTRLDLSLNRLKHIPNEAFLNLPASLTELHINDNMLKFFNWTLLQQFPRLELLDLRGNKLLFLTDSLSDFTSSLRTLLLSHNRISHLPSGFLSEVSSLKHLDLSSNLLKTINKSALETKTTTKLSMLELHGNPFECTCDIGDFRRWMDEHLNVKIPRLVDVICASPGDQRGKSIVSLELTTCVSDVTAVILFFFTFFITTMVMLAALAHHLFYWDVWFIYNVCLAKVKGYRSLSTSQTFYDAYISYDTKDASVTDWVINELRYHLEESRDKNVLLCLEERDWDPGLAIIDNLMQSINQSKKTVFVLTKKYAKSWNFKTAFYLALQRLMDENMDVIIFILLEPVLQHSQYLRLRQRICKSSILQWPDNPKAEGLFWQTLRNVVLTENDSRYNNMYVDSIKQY
Assay type: cell-based
Summary of the method: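 Reporter cells are plated at 15,000 per well and rested 24 h. Next day, test compounds or DMSO are dispensed, followed by 18 h incubation at 37 °C, 5% CO2.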

`CCNCc1nc2c(N)nc3cc(-c4cc[nH]n4)ccc3c2[nH]1` [Compound 101, 2-[(Ethylamino)methyl]-7-(1H-pyrazol-3-yl)-1H-imidazo[4,5-c]quinolin-4-amine hydrochloride] and `NCc1nc2c(N)nc3cc(-c4cc[nH]n4)ccc3c2[nH]1` [Compound 131] cannot be ordered by EC50: > 100 µM for the first, > 100 µM for the second.

`CC(=O)N(C)Cc1nc2c(N)nc3cc(-n4cccn4)ccc3c2[nH]1` [Compound 102, N-((4-Amino-7-(1H-pyrazol-1-yl)-1H-imidazo[4,5-c]quinolin-2-yl)methyl)-N-methylacetamide] and `CN(Cc1nc2c(N)nc3cc(-n4cccn4)ccc3c2[nH]1)S(C)(=O)=O` [Compound 119] cannot be ordered by EC50: > 100 µM for the first, > 100 µM for the second.

`CN(Cc1nc2c(N)nc3cc(-c4cc[nH]n4)ccc3c2[nH]1)C(=O)C1CC1` [Compound 120] and `CC(=O)N(C)Cc1nc2c(N)nc3cc(-c4cc[nH]n4)ccc3c2[nH]1` [Compound 129] cannot be ordered by EC50: > 100 µM for the first, > 100 µM for the second.

`CCN(Cc1nc2c(N)nc3cc(-c4cc[nH]n4)ccc3c2n1C)C(C)=O` [Compound 121] and `CCC(=O)N(CC)Cc1nc2c(N)nc3cc(-c4cc[nH]n4)ccc3c2[nH]1` [Compound 125] cannot be ordered by EC50: > 100 µM for the first, > 100 µM for the second.

`CCC(=O)N(C)Cc1nc2c(N)nc3cc(-c4cc[nH]n4)ccc3c2[nH]1` [Compound 122] and `CCN(Cc1nc2c(N)nc3cc(-c4cc[nH]n4)ccc3c2[nH]1)C(=O)NC` [Compound 128] cannot be ordered by EC50: > 100 µM for the first, > 100 µM for the second.

`CCN(Cc1nc2c(N)nc3cc(-c4cc[nH]n4)ccc3c2[nH]1)S(C)(=O)=O` [Compound 124] and `CCN(Cc1nc2c(N)nc3cc(-c4cc[nH]n4)ccc3c2[nH]1)CC(C)C` [Compound 453, 2-{[ethyl(2-methylpropyl)amino]methyl}-7-(1H-pyrazol-3-yl)-1H-imidazo[4,5-c]quinolin-4-amine] cannot be ordered by EC50: > 100 µM for the first, > 100 µM for the second.

`CCN(Cc1nc2c(N)nc3cc(-n4cccn4)ccc3c2[nH]1)C(N)=O` [Compound 130] and `CCN(Cc1nc2c(N)nc3cc(-n4nccn4)ccc3c2[nH]1)C(C)=O` [Compound 132] cannot be ordered by EC50: > 100 µM for the first, > 100 µM for the second.

`CC(c1nc2c(N)nc3cc(-c4cccnc4)ccc3c2[nH]1)N1CCCC1=O` (stereo not drawn) [Compound 138] and `Nc1nc2cc(-c3ccc(Cl)nc3)ccc2c2[nH]c(CN3CCCC3=O)nc12` [Compound 153] cannot be ordered by EC50: > 100 µM for the first, > 100 µM for the second.

`CC(=O)N(Cc1nc2c(N)nc3cc(-c4cc[nH]n4)ccc3c2[nH]1)C(C)C` [Compound 140] and `CCN(CC)C(=O)N(CC)Cc1nc2c(N)nc3cc(-c4cc[nH]n4)ccc3c2[nH]1` [Compound 454, 1-{[4-amino-7-(1H-pyrazol-3-yl)-1H-imidazo[4,5-c]quinolin-2-yl]methyl}-1,3,3-triethylurea] cannot be ordered by EC50: > 100 µM for the first, > 100 µM for the second.

`Nc1nc2ccc(Cl)cc2c2[nH]c(CN3CCCC3=O)nc12` [Compound 141] and `Nc1nc2cc(Cl)ccc2c2[nH]c(CN3CCCC3=O)nc12` [Compound 143] cannot be ordered by EC50: > 100 µM for the first, > 100 µM for the second.

`CC(C)(C)OC(=O)NCc1nc2c(N)nc3cc(-c4cc[nH]n4)ccc3c2[nH]1` [Compound 142] and `CCN(Cc1nc2c(N)nc3cc(-c4ncc[nH]4)ccc3c2[nH]1)C(=O)OC(C)(C)C` [Compound 155] cannot be ordered by EC50: > 100 µM for the first, > 100 µM for the second.

Compared with `CCNCc1nc2c(N)nc3cc(OC)ccc3c2[nH]1` [Compound 154], `CCN(Cc1nc2c(N)nc3cc(OC)ccc3c2[nH]1)C(C)=O` [Compound 158, N-((4-Amino-7-methoxy-1H-imidazo[4,5-c]quinolin-2-yl)methyl)-N-ethylacetamide] is higher in EC50: 20 to 100 µM for the first, > 100 µM for the second.

First: Nc1nc2cc(-n3ncc4ccccc43)ccc2c2[nH]c(CN3CCCC3=O)nc12 [Compound 157]
Second: CCNCc1nc2c(N)nc3cc(-c4ncc[nH]4)ccc3c2[nH]1 [Compound 162]
The EC50 of the first is lower: 20 to 100 µM for the first, > 100 µM for the second.

For `CCN(Cc1nc2c(N)nc3cc(Cl)c(Cl)cc3c2[nH]1)C(C)=O` [Compound 159], the EC50 was > 100 µM.
